This is an account of results in US20130131089A1, “DOSAGE FORMS OF ELINOGREL AND METHODS OF INJECTABLE ADMINISTRATION THEREOF” (Portola Phamaceuticals Inc., priority 2010, published 2013).

Converted amounts (≈) assume the structure as drawn. Read-outs that look alike come from different tables or passages of the source.

Data set [1] is described as follows: Kinetic solubility in liquid formulation containing mannitol and glycine buffer. The class given is physicochemical. The settings on record: 4% mannitol; for Solubility (kinetic): 50 mM glycine sodium; for solubility kinetic at 1 day / solubility kinetic at 2 day / solubility kinetic at 3 day / solubility kinetic at 4 day / solubility kinetic at 5 day: IV vehicle: 50 mM glycine sodium, thermodynamic from solid; for solubility kinetic at 5 day: pH 8.8, Day 5. On the procedure: Three solid state forms of Elinogrel were tested: i.e., Form B (mono potassium hemi hydrate), Form C (hemi potassium trihydrate), and the Free Acid form. Excess Elinogrel (i.e., ˜10 mg/ml when fully dissolved) was equilibrated with the IV vehicle composed of 50 mM glycine sodium and 4% mannitol at RT or refrigerated. The pH was monitored and adjusted to the target range using NaOH or HCl.

Data set [2] in a line: Solubility in co-solvents (propylene glycol, ethanol). The format is physicochemical. As to conditions: propylene glycol/ethanol co-solvent mixture, aqueous with cosolvent or surfactant or cyclodextrin, thermodynamic from solid, 10% EtOH, no pH adjustment, 25° C. How it is done:
Excess Elinogrel potassium solids were added into ½ mL of 25% or 75% propylene glycol with 10% ethanol and the suspensions were equilibrated for 12 days at ambient temperature. Solubilities were determined by analyzing concentration of supernatants via HPLC.

Data set [3] is described as follows: Solubility in sodium sulfobutyl ether β-cyclodextrin solutions over time. The format is physicochemical. How it is done:
A set of samples in 0, 10, 20, and 40% sodium sulfobutyl ether β-cyclodextrin with no pH adjustment were equilibrated for 12 days and concentrations of supernatants at 1, 3, 6, and 12 days were determined.
The solubility results of Elinogrel potassium at various sodium sulfobutyl ether β-cyclodextrin concentrations as a function of time (without pH adjustment) are shown in Table 4. […] There is a continued decrease of solubility overtime, before it approaching plateau at each SBE-β-CD level.

For data set [4] the following is noted: pH 9.3.
Protocol: (§1) The white to off-white wet solids were collected by centrifugation at 13,000 rpm for 5 min and supernatant removal.
Data set [5] in a line: physchem. As to conditions: thermodynamic from solid, S (solubility).
Protocol: as §1
Data set [6] in a line: pKa, logP and logD of Elinogrel. The class given is physicochemical.
A short description of data set [7]: Aqueous solubility of the free acid form. The format is physicochemical. The settings on record: aqueous medium, aqueous buffer; pH 1.0-7.4.
A short description of data set [8]: Thermodynamic solubility at different pH at 37° C. The format is physicochemical. The settings on record: aqueous slurry, thermodynamic from solid. How it is done: The thermodynamic solubility of Elinogrel potassium salt and free acid in pH range of 1-10 at 37° C. was also determined. Excess Elinogrel free acid or potassium salt (start from Form B) was equilibrated with its aqueous slurries at various pH under constant agitation. Different amounts of NaOH or HCl solution were used to adjust pH. Solubility was determined after 3 days by analyzing the elinogrel concentration in supernatant of the slurry after ultracentrifugation.

For data set [9], the system named is Male New Zealand White rabbits. Briefly: Rabbit vein and tissue irritation study. The format is in vivo. As to conditions: 4% mannitol, perivascular and subcutaneous, 5 days. On the procedure:
Male New Zealand White rabbits were utilized in this study. Rabbits received 3 injections:
Intravenous (IV): 1.0 mL in left marginal ear vein;
Perivascular: 0.5 mL near the right marginal ear vein; and
Subcutaneous (SC): 1.0 mL in the scapular region of the dorsal back.
There were four rabbits per each of the following dose groups.
Normal Saline: 0.9% sodium chloride
Vehicle: 10 mM sodium glycine, 4% mannitol, pH 9.31
Elinogrel (Na salt) at 16.7 mg/mL in 10 mM glycine, 4% mannitol, pH 9.33
Elinogrel (K salt) at 4.0 mg/mL in 50 mM glycine, 4% mannitol, pH 9.38
On day 5, tissues (ears and skin) were harvested and processed for histological examination of the injection site.

Consider `CNc1cc2[nH]c(=O)n(-c3ccc(NC(=O)NS(=O)(=O)c4ccc(Cl)s4)cc3)c(=O)c2cc1F` [Elinogrel potassium (Form B)], for which the “Solubility (kinetic)” value in [1] (RT, pH 8.8, Day 1, listed as Elinogrel K salt-Form B, potassium salt) came out at 5930 µg/mL; in [1] (RT, pH 8.8, Day 2, listed as Elinogrel K salt-Form B, potassium salt), 5200 µg/mL; in [1] (RT, pH 8.8, Day 3, listed as Elinogrel K salt-Form B, potassium salt), 1750 µg/mL; in data set [1] (RT, pH 8.8, Day 4, listed as Elinogrel K salt-Form B, potassium salt) it was 2080 µg/mL; in data set [1] (RT, pH 8.8, Day 5, listed as Elinogrel K salt-Form B, potassium salt), 1370 µg/mL; in data set [1] (RT, pH 9, Day 1, listed as Elinogrel K salt-Form B, potassium salt), 5890 µg/mL. Further, the “Solubility (kinetic)” value in data set [1] (RT, pH 9, Day 2, listed as Elinogrel K salt-Form B, potassium salt) worked out at 3560 µg/mL; in [1] (RT, pH 9, Day 3, listed as Elinogrel K salt-Form B, potassium salt), 1780 µg/mL; in data set [1] (RT, pH 9, Day 4, listed as Elinogrel K salt-Form B, potassium salt) it was 1950 µg/mL; in [1] (RT, pH 9, Day 5, listed as Elinogrel K salt-Form B, potassium salt) it was 1290 µg/mL. Moreover, in [1] (5 °C, pH 8.8, aqueous buffer, 5° C., pH 8.8, Day 1), the kinetic solubility – broadly, the concentration staying in solution when a stock, usually in DMSO, is diluted into the medium – at 1 day worked out at 5480 µg/mL. Also, the kinetic solubility at 2 day in data set [1] (5 °C, pH 8.8, aqueous buffer, 5° C., pH 8.8, Day 2) was 4020 µg/mL. The compound also registered a solubility (kinetic) at 3 day in [1] (5 °C, pH 8.8, aqueous buffer, 5° C., pH 8.8, Day 3) of 1580 µg/mL. This compound came in with a solubility (kinetic) at 4 day in data set [1] (5 °C, pH 8.8, aqueous buffer, 5° C., pH 8.8, Day 4) of 1580 µg/mL. In [1] (5 °C, pH 8.8, aqueous buffer, 5° C.), the kinetic solubility at 5 day was found to be 1110 µg/mL. Moreover, the solubility (commonly the dissolved amount per volume that the medium holds) at 12 d in data set [2] (25% PG, pH 7.0, read-out: S (solubility)) was determined as 8000 µg/mL; in [2] (75% PG, pH 7.3, read-out: S (solubility)), 21000 µg/mL.
As for `CNc1cc2[nH]c(=O)n(-c3ccc(NC(=O)NS(=O)(=O)c4ccc(Cl)s4)cc3)c(=O)c2cc1F` [Elinogrel potassium (Form C)], the “Solubility (kinetic)” value came out at 2360 µg/mL in data set [1] (RT, pH 8.8, Day 1, listed as Elinogrel K-Form C, potassium salt) and 1920 µg/mL in data set [1] (RT, pH 8.8, Day 2, listed as Elinogrel K-Form C, potassium salt). The solubility (kinetic) at 3 day in data set [1] (pH 8.8, aqueous buffer, RT, pH 8.8, Day 3) stood at 1790 µg/mL. In addition, the kinetic solubility at 4 day in [1] (pH 8.8, aqueous buffer, RT, pH 8.8, Day 4) amounted to 2150 µg/mL. The solubility (kinetic) at 5 day in [1] (pH 8.8, aqueous buffer, RT) was found to be 1450 µg/mL. Also, in data set [3] (20% sodium sulfobutyl ether β-cyclodextrin vs water), the “solubility in 20% sodium sulfobutyl ether β-cyclodextrin relative to that in water” value is given as “approximately 4 fold”. The Elinogrel potassium conc. in [3] (20% sodium sulfobutyl ether β-cyclodextrin, 12 d, no pH adjustment (pH~7), potassium salt) is given as 11.5 mg/mL.
Take `CNc1cc2[nH]c(=O)n(-c3ccc(NC(=O)NS(=O)(=O)c4ccc(Cl)s4)cc3)c(=O)c2cc1F` [Elinogrel sodium hydrate]: the “S (solubility)” value in [4] is 17000 µg/mL. In addition, the solubility in data set [5] (4 °C, water) came out at 13000 µg/mL; in data set [5] (pH 9.2, water), 23000 µg/mL; in [5] (pH 9.3, aqueous buffer) it was 16000 µg/mL.
Turning to `CNc1cc2[nH]c(=O)n(-c3ccc(NC(=O)NS(=O)(=O)c4ccc(Cl)s4)cc3)c(=O)c2cc1F` [Elinogrel, [4-(6-Fluoro-7-methylamino-2,4-dioxo-1,4-dihydro-2H-quinazolin-3-yl)-phenyl]-5-chloro-thiophen-2-yl-sulfonylurea], in data set [6], the logP entry is reported as “about 2.5”. For the same compound, the pKa (commonly the negative logarithm of the acid dissociation constant) in [6] was ~3.3. Also, the logD result in [6] (pH 7.4) is recorded as “about −1.6”. The solubility in data set [7] is < 100 µg/mL. The “Solubility (kinetic)” value in data set [1] (RT, pH 9, Day 5, listed as Elinogrel free acid-Form B) worked out at 4050 µg/mL (≈ 7730 µM). The same compound registered a kinetic solubility at 1 day in data set [1] (pH 9, aqueous buffer, RT, pH 9, Day 1) of 3140 µg/mL (≈ 5990 µM). Besides, the kinetic solubility at 2 day in [1] (pH 9, aqueous buffer, RT, pH 9, Day 2) worked out at 3230 µg/mL (≈ 6160 µM). This compound had a solubility (kinetic) at 3 day in [1] (pH 9, aqueous buffer, RT, pH 9, Day 3) of 3330 µg/mL (≈ 6360 µM). The compound further yielded a solubility (kinetic) at 4 day in data set [1] (pH 9, aqueous buffer, RT, pH 9, Day 4) of 2650 µg/mL (≈ 5060 µM). Besides, the solubility (thermodynamic) – broadly, solubility found after equilibrating the solid with the medium – at 3 days was 0.057 µg/mL (≈ 0.109 µM) in data set [8] (aqueous buffer, pH 3.00); 418 µg/mL (≈ 799 µM) in data set [8] (aqueous buffer, pH 8.11); 0.03 µg/mL (≈ 0.0573 µM) in data set [8] (pH 1.1, simulated gastric fluid, pH 1.10); 0.544 µg/mL (≈ 1.04 µM) in data set [8] (pH adjusted with NaOH or HCl, aqueous buffer, pH 5.97); 2.17 µg/mL (≈ 4.14 µM) in data set [8] (pH adjusted with NaOH or HCl, aqueous buffer, pH 6.61); 46.6 µg/mL (≈ 88.9 µM) in data set [8] (pH adjusted with NaOH or HCl, aqueous buffer, pH 7.22). The solubility (thermodynamic) at 3 days in data set [8] (pH adjusted with NaOH or HCl, pH 4.2, aqueous buffer, pH 4.20) is 0.022 µg/mL (≈ 0.042 µM); in data set [8] (simulated gastric fluid, pH 1.88), 0.002 µg/mL (≈ 0.00382 µM). Besides, the tolerability of injection entry in data set [9] (K salt at 4.0 mg/mL in 50 mM glycine, pH 9.38, intravenous) was “well tolerated”; in [9] (Na salt at 16.7 mg/mL in 10 mM glycine, pH 9.33, intravenous) it was “well tolerated”.
